Results reported in PubChem BioAssay (NCI).
Values joined by “and” are separate entries in the source; they are usually repeats but may differ in a detail not shown here. Equal values may be shown once.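 Cultured in 96-well plates, cells were exposed to test compound for 48 hours across five concentrations. GI50 = concentration required for 50% inhibition of growth. TGI denotes the concentration required for complete inhibition of growth.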

How the values were obtained:
Assay in all cases: DTP human tumour cell line panel, 48 h
ACHN renal = system: ACHN renal
NCI-H226 lung = system: NCI-H226 lung
NCI-H23 lung = system: NCI-H23 lung
NCI-H460 lung = system: NCI-H460 lung
SN12C renal = system: SN12C renal
SNB-19 CNS = system: SNB-19 CNS
U251 CNS = system: U251 CNS
UACC-62 melanoma = system: UACC-62 melanoma
DU-145 prostate = system: DU-145 prostate
IGROV1 ovarian = system: IGROV1 ovarian

SMILES	TGI (ACHN renal)	TGI (NCI-H226 lung)	TGI (NCI-H23 lung)	TGI (NCI-H460 lung)	TGI (SN12C renal)	TGI (SNB-19 CNS)	TGI (U251 CNS)	TGI (UACC-62 melanoma)	TGI (DU-145 prostate)	TGI (IGROV1 ovarian)	GI50 (DU-145 prostate)	GI50 (IGROV1 ovarian)	GI50 (NCI-H226 lung)	GI50 (SN12C renal)	GI50 (SNB-19 CNS)	GI50 (UACC-62 melanoma)	GI50 (NCI-H23 lung)	GI50 (NCI-H460 lung)
COc1cc(/C=C2\CCc3ccccc3C2=O)cc(OC)c1OC	29.6 µM	36.8 µM	29.2 µM	36.4 µM	35.6 µM	29.2 µM	29.7 µM	27.5 µM	–	–	–	–	–	–	–	–	–	–
CC(C)CC(=O)CC(O)C(Cl)(Cl)Cl (centres undefined)	> 100 µM	> 100 µM	> 100 µM	–	> 100 µM	> 100 µM	> 100 µM	> 100 µM	> 100 µM	> 100 µM	–	–	–	–	–	–	–	–
CCc1cccc(C(C)CC)c1NC(=O)CC1C(=O)Nc2ccccc2S1=O (centres undefined)	> 100 µM	> 100 µM	> 100 µM	> 100 µM	> 100 µM	> 100 µM	48.5 µM	> 100 µM	–	78.6 µM	–	–	–	–	–	–	–	–
COC(=O)C(=O)C(C#N)c1ccc(Cl)c(Cl)c1 (centres undefined)	> 100 µM	> 100 µM	> 100 µM	–	> 100 µM	–	> 100 µM	> 100 µM	–	> 100 µM	–	–	–	–	–	–	–	–
Cc1cccc(N2C(=O)C(=O)C(c3nc4ccccc4s3)C(=O)C2=O)c1C	> 100 µM	> 100 µM	> 100 µM	–	> 100 µM	> 100 µM	> 100 µM	> 100 µM	–	> 100 µM	–	–	–	–	–	–	–	–
COc1cc2c3c(n(CCCNCCN4CCOCC4)c(=O)c2cc1OC)-c1cc2c(cc1C3=O)OCO2	0.658 µM and 2.62 µM	53.8 µM	0.529 µM and 3.83 µM	–	6.5 µM	50 µM and > 55.2 µM	0.959 µM and 4.55 µM	7.58 µM	3.8 µM	23.5 µM and > 100 µM	0.678 µM	6.92 µM and 2.12 µM	15.1 µM	1.31 µM	2.23 µM and 0.77 µM	1.38 µM	–	–
COc1ccc(CCC2NCCc3cc(OC)c(OC)cc32)cc1 (centres undefined)	> 100 µM	–	> 100 µM	> 100 µM	> 100 µM	> 100 µM	> 100 µM	–	–	–	–	–	–	–	–	–	–	–
Cc1ccc(N(C(=O)CC(=O)N2N=C(c3ccccc3)C(N=Nc3ccc([N+](=O)[O-])cc3)C2=O)C(=O)c2ccc(Cl)cc2)cc1 (centres undefined)	> 100 µM	> 94.8 µM	28.2 µM	> 47.8 µM	> 81.1 µM	60.1 µM	23.7 µM	> 100 µM	–	45.9 µM	–	–	–	–	–	–	–	–
CC1=N/C(=C\c2cccc3ccccc23)C(=O)O1	> 100 µM	–	> 100 µM	> 100 µM	> 100 µM	> 100 µM	> 100 µM	> 100 µM	–	> 100 µM	–	–	–	–	–	–	–	–
Cn1cnc([N+](=O)[O-])c1Sc1nnc(C(F)(F)F)n1C	57.4 µM	> 100 µM	> 100 µM	> 100 µM	> 100 µM	> 100 µM	37.2 µM	33.5 µM	–	> 100 µM	–	–	–	–	–	–	–	–
CCCCC#Cc1cccc(=O)o1	–	> 100 µM	> 100 µM	> 100 µM	–	> 100 µM	–	> 100 µM	> 100 µM	> 100 µM	29.5 µM	79.5 µM	> 100 µM	–	> 100 µM	30 µM	8.98 µM	36.2 µM
CCCCCCCCCC(=O)N[C@H]1CCc2cc(OC)c(OC)c(OC)c2-c2ccc(SC)c(=O)cc21	> 100 µM	–	–	0.306 µM	19.6 µM	75 µM	0.0618 µM	15.3 µM	–	–	–	–	0.619 µM	–	–	–	–	–
